In PMC11897524 (Frontiers in Pharmacology, 2025):

Assays:
BRD3 = BRD3 (Homo sapiens, UniProt Q15059); experiment: Binding affinity to BET and STAT family members
STAT2 = STAT2 (Homo sapiens, UniProt P52630); experiment: Binding affinity to BET and STAT family members
STAT4 = STAT4 (Homo sapiens, UniProt Q14765); experiment: Binding affinity to BET and STAT family members
STAT5a = STAT5a (Homo sapiens, UniProt P42229); experiment: Binding affinity to BET and STAT family members
STAT6 = STAT6 (Homo sapiens, UniProt P42226); experiment: Binding affinity to BET and STAT family members
769-P cells = experiment: MTT cytotoxicity assay; type: cell-based; conditions: Homo sapiens, cell growth, 48 h treatment, read-out: IC50 (μM) ± SD 769-P
Protocol: (§1) Human normal renal cortical proximal tubular epithelial cell line HK-2 and human renal carcinoma cell lines CAKI-2, SLR-23, 769-P, A704 and RCC4 were previously purchased from the American Type Culture Collection (ATCC, Manassas, VA, USA) or the European Collection of Cell Cultures (ECACC, Salisbury, United Kingdom). HK2, A704, and RCC4 cells were maintained in high glucose DMEM supplemented with 10% FBS and 1% penicillin/streptomycin. SLR-23 and […] cells were cultured in RPMI-1640 medium with 10% FBS and 1% penicillin/streptomycin. CAKI-2 cells were maintained in McCoy’s 5A medium supplemented with 10% FBS and 1% penicillin/streptomycin. All the cell lines were cultured at 37°C in a humidified atmosphere of 5% CO2 and 95% air.
(§2) The effect of hit compounds on cytotoxicity was determined as previously reported ([Ding et al., 2020]). In brief, cells treated with the tested compounds were added with MTT reagent to form formazan crystals, and then the optical density (OD) values at 570 nm were determined after the crystals were dissolved in DMSO. […] Next, the values of IC50 of the selected compounds against more RCC cell lines were determined. The 5 × 10^3 cells in 100 μL culture medium were injected into each well of a 96-well plate and cultured overnight. Add different concentrations of compounds and incubate for 48 h. Then 100 μL of MTT (0.5 mg/mL) solution was added to the 96-well plate and maintained at 37°C for 4 h. Finally, 200 μL of DMSO was added and shaken for 10 min. The OD values at 570 nm were determined by a Synergy 4 microplate reader.

A704 cells = experiment: MTT cytotoxicity assay; type: cell-based; conditions: Homo sapiens, cell growth, 48 h treatment, read-out: IC50 (μM) ± SD A704
Protocol: as §1, §2

[1] = tested on: HK-2 normal renal cortical proximal tubular epithelial cells; experiment: MTT cytotoxicity assay; type: cell-based; conditions: Homo sapiens, Epithelial cell, normal cell line, 48 h treatment, read-out: IC50 (μM) ± SD HK-2
Protocol: as §1, §2

RCC4 cells = experiment: MTT cytotoxicity assay; type: cell-based; conditions: Homo sapiens, cell growth, 48 h treatment, read-out: IC50 (μM) ± SD RCC4
Protocol: as §1, §2

SLR-23 cells = experiment: MTT cytotoxicity assay; type: cell-based; conditions: Homo sapiens, cell growth, 48 h treatment, read-out: IC50 (μM) ± SD SLR-23
Protocol: as §1, §2

STAT3 phosphorylation = experiment: Western blot of phosphorylated STAT3 in CAKI-2 cells; type: cell-based, human; conditions: 100 nM, 24 h
Protocol: For the assessment of protein expression levels, Western blot analysis was conducted following a standardized protocol ([Zhou et al., 2022]). The CAKI-2 cells were initially rinsed with PBS to remove any residual culture medium. Subsequently, cells were lysed using a RIPA buffer supplemented with 1 mM phenylmethylsulfonyl fluoride (PMSF), and the lysate was incubated on ice for a duration of 1 h. The lysate was centrifuged at a speed of 13,000 rpm for 30 min at 4°C. Protein concentrations were quantified using a BCA protein assay kit (Beyotime, Shanghai, China), ensuring equal protein loading for each sample. Samples were then resolved by SDS-PAGE and transferred onto a polyvinylidene difluoride (PVDF) membrane. Subsequently, the membrane was blocked with 3% BSA in PBS at room temperature for 2 h and incubated overnight with the corresponding antibody at 4°C. After washing to remove unbound primary antibodies, the membrane was incubated with horseradish peroxidase (HRP)-conjugated secondary antibodies for a period of 1 h at room temperature. The specific protein bands were visualized using ECL detection system (Tanon, Shanghai, China), and the band intensities were quantified using ImageJ software.

BRD4 [2] = molecular target: T1, BRD4 (Homo sapiens, UniProt O60885); experiment: Microscale thermophoresis (MST) assay; type: binding; design: purchased Abcam
BRD4 [3] = molecular target: T1, BRD4; experiment: NanoBRET assay in HEK293T cells; type: cell-based; design: NanoLuc BRD4/STAT3 FL Fusion Vector DNA; expressed in transfected cells; host or cells: HEK293T
Protocol: (§3) The method was performed as previously reported ([Horai et al., 2024]). Briefly, HEK293T cells were seeded in dishes and allow the cells to attach and recover for overnight. The mixture of Histone H4 HaloTag Fusion vector DNA, NanoLuc BRD4/STAT3 FL Fusion Vector DNA, opti-MEM, and FuGENE HD was added dropwise to the HEK293T cells followed by incubation for 20–24 h at 37°C and 5% CO2 and allow the proteins to express. The cells were collected and re-seeded in 384 well plates. HaloTag NanoBRET 618 Ligand was added to plate and allow the cells to attach and recover for 4 h. Serially diluted compounds were transferred to the plate and incubated the plate overnight. Then NanoBRET Nano-Glo Substrate in Opti-MEM was added, and shake plate to mix. The donor emission (450 nm) and acceptor emission (610 nm), BRET signal, were measured within 10 min of substrate addition using microplate reader (Envision, PerkinElmer). Data analysis was done by measuring the ratio of acceptor emission to donor emission (BRET ratio). IC50 values and curve fits were obtained using GraphPad Prism 7.0 software.

STAT3 = STAT3 (Homo sapiens, UniProt P40763); experiment: NanoBRET assay in HEK293T cells; type: cell-based; design: NanoLuc BRD4/STAT3 FL Fusion Vector DNA; expressed in transfected cells; host or cells: HEK293T
Protocol: as §3

Sequence of STAT6 (P42226 whole entry): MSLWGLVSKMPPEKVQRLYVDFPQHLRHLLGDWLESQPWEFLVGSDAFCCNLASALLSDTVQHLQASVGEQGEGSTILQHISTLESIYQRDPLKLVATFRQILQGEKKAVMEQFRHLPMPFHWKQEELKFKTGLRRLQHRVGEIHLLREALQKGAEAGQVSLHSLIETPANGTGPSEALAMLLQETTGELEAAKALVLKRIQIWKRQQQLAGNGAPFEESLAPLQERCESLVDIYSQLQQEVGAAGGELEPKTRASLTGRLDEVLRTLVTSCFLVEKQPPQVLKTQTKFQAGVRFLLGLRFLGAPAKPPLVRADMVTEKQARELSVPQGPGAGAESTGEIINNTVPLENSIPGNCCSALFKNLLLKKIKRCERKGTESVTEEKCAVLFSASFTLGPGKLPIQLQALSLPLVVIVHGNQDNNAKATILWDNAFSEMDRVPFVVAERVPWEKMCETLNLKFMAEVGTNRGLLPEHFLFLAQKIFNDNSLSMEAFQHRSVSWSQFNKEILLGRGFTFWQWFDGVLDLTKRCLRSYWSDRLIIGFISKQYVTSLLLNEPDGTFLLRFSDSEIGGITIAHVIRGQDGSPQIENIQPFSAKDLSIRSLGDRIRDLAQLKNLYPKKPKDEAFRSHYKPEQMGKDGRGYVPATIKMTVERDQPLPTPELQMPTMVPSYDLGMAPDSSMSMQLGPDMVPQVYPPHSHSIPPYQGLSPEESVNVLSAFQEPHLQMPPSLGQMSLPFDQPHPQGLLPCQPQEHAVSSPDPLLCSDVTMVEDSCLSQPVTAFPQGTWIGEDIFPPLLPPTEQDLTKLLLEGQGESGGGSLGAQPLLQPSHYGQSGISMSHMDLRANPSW
Sequence of STAT4 (Q14765 whole entry): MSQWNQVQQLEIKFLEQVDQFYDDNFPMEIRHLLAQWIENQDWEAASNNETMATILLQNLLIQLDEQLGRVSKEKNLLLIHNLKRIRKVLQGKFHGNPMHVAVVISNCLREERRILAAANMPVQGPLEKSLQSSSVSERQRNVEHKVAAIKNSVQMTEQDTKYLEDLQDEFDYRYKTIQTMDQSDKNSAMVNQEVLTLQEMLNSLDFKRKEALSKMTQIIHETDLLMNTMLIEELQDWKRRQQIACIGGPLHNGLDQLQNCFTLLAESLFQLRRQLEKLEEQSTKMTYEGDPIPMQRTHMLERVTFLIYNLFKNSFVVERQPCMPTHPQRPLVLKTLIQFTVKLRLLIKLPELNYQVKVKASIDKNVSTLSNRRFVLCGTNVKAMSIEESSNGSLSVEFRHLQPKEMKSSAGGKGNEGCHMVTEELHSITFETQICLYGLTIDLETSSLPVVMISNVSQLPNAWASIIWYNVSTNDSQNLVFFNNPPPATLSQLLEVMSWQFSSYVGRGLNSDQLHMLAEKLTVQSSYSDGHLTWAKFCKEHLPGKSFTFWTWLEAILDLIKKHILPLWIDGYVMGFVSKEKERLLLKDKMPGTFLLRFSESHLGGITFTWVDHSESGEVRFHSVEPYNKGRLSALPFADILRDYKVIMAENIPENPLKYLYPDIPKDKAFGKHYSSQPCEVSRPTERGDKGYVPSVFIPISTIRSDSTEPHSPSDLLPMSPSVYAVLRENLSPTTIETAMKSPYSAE
Sequence of STAT5a (P42229 whole entry): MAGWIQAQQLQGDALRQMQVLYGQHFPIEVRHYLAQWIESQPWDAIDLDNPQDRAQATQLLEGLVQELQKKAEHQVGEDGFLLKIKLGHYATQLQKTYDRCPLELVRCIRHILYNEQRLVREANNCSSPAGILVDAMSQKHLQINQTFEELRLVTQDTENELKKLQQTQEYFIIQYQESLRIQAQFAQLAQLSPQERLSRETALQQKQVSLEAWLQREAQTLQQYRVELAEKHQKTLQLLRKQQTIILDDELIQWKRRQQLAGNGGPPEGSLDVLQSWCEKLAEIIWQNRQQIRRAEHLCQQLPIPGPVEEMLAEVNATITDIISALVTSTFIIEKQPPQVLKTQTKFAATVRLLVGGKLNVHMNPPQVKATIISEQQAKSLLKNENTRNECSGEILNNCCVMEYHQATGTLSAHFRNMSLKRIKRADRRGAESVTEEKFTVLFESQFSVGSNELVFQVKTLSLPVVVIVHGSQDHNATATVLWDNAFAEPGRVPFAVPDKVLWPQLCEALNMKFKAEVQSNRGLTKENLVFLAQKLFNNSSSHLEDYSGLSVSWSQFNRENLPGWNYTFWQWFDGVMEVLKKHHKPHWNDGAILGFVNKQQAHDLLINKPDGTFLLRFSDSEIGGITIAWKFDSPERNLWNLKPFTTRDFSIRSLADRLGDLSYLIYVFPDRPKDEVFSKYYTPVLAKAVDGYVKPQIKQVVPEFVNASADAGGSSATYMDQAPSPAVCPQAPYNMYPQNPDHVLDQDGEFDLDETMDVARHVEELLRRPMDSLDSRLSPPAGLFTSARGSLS
Sequence of STAT3 (P40763 2-770): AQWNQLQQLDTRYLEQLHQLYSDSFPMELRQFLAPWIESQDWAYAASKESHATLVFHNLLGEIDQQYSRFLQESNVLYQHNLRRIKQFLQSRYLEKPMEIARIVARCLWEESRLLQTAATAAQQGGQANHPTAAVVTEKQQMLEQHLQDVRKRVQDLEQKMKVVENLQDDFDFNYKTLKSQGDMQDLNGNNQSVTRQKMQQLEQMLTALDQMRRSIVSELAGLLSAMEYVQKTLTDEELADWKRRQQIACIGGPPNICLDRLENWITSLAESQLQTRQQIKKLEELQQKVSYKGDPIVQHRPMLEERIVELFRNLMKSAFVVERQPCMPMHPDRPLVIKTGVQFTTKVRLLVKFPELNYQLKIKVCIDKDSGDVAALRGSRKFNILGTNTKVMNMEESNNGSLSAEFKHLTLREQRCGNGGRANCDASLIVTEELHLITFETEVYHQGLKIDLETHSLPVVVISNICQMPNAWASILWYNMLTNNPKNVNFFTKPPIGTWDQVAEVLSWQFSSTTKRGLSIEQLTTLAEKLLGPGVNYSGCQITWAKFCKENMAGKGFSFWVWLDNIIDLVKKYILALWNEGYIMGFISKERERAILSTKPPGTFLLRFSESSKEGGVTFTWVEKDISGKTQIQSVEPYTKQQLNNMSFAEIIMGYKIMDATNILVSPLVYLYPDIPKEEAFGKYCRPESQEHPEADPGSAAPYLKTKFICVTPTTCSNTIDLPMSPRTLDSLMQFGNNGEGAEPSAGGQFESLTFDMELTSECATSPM
Sequence of STAT2 (P52630 whole entry): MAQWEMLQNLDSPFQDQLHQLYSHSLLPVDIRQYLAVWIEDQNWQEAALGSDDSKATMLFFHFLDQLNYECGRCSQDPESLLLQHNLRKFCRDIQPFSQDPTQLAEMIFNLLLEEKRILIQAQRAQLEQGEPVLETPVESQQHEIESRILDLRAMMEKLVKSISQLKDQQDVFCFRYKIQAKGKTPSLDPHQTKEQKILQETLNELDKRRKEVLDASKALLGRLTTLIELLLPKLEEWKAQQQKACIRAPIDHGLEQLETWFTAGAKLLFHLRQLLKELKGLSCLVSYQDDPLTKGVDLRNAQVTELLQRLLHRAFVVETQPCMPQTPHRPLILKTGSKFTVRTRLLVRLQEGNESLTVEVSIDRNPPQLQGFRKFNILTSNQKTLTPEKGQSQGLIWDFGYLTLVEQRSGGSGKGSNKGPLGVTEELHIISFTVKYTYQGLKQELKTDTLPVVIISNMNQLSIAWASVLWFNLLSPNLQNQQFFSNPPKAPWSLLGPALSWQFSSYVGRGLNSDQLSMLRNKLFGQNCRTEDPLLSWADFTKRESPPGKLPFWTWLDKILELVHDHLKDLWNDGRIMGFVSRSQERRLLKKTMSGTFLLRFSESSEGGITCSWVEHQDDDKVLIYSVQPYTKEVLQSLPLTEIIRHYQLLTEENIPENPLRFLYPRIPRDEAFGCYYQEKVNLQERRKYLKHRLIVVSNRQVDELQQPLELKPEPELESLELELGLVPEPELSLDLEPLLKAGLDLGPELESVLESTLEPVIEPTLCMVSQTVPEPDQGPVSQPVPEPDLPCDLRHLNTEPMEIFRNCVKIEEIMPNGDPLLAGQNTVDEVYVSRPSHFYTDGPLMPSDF
Sequence of BRD3 (Q15059 whole entry): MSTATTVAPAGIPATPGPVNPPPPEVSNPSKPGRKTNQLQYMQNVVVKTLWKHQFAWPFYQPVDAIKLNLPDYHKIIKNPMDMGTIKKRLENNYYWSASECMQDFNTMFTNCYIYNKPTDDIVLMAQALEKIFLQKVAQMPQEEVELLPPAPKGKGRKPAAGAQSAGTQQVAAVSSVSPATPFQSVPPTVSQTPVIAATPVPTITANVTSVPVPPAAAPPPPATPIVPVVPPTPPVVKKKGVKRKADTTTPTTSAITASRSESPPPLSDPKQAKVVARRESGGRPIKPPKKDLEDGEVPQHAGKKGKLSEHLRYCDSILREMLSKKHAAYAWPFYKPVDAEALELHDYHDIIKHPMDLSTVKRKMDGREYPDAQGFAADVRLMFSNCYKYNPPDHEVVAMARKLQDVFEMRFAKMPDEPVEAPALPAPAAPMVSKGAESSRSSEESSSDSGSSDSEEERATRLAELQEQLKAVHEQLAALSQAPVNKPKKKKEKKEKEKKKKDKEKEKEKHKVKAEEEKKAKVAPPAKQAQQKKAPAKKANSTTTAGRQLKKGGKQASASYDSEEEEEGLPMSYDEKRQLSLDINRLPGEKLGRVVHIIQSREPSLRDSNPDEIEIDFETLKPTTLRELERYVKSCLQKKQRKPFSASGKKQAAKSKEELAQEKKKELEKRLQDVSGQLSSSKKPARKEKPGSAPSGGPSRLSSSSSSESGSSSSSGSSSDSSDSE

Kd (BRD3): > 10000 nM | Kd (STAT2): > 10000 nM | Kd (STAT4): > 10000 nM | Kd (STAT5a): > 10000 nM | Kd (STAT6): > 10000 nM | BRD4 binding affinity relative to RVX-208 (BRD4 [2]; Kd ratio vs RVX-208, MST): 17 fold | Kd (BRD4 [2]; MST): 1.46 ± 0.07 nM | IC50 (BRD4 [3]): 2.58 ± 0.07 nM | IC50 (STAT3): 5.17 ± 0.09 nM
SMILES: CCS(=O)(=O)Cc1cnc(Oc2c(F)cc(F)cc2OCCCCOc2ccc(/C=C/c3cc(OC)cc(OC)c3)cc2)c(-c2cc(C)c3c(=O)[nH]ccn23)c1 [BST-4]
IC50 (769-P cells): 1.68 ± 0.32 µM | IC50 (A704 cells): 1.07 ± 0.18 µM | IC50 [1]: > 10 µM | IC50 (RCC4 cells): 2.19 ± 0.64 µM | IC50 (SLR-23 cells): 1.52 ± 0.43 µM | STAT3 phosphorylation in CAKI-2 cells (STAT3 phosphorylation): significantly decreased
